Data published in patent publication US9328099B2, “Cyanomethylpyrazole carboxamides as janus kinase inhibitors” (Merck Sharp & Dohme Corp., priority 2011, dated 2016).

Columns and labels:
JAK1 = JAK1 (Homo sapiens (Human), UniProt P23458); assay: Jak Biochemical HTRF Assay, JAK1; conditions: HTRF biochemical assay, GST-tagged catalytic domain; top concentration tested […]; read-out: JAK1 IC50
Description: (§1) Jak Biochemical HTRF Assay Protocol
(§2) Subsequent reagent additions employed an Agilent Bravo.

JAK2 = JAK2 (Homo sapiens (Human), UniProt O60674); assay: Jak Biochemical HTRF Assay, JAK2; conditions: HTRF biochemical assay, GST-tagged catalytic domain; top concentration tested […]
Description: as §1, §2

Sequence of JAK2 (O60674 849-1124): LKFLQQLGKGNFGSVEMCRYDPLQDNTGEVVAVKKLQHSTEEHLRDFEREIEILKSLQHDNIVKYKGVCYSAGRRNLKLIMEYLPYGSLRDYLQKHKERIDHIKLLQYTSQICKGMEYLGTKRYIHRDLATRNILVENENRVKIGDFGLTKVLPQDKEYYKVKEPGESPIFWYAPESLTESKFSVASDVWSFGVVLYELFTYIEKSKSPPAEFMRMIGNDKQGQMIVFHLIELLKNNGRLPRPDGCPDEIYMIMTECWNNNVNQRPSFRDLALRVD
Sequence of JAK1 (P23458 875-1153): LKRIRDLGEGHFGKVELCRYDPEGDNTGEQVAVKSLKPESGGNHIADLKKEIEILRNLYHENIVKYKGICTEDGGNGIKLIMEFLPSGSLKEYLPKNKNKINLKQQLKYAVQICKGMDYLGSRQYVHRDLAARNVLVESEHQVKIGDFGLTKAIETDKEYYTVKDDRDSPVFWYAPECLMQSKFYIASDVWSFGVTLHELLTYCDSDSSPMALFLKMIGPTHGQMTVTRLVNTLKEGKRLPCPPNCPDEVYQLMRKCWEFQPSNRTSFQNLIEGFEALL

| SMILES | IC50 (JAK1) [nM] | IC50 (JAK2) [nM] |
| --- | --- | --- |
| N#CCC1(n2cc(C(N)=O)c(Nc3ccc(F)cc3)n2)CCN(Cc2ccco2)CC1 [Example 22-54, 1-[4-(cyanomethyl)-1-(furan-2-ylmethyl)piperidin-4-yl]-3-[(4-fluorophenyl)amino]-1H-pyrazole-4-carboxamide] | 1 | 28 |
| N#CCC1(n2cc(C(N)=O)c(Nc3ccc(F)cc3)n2)CCN(Cc2ccc3[nH]ccc3c2)CC1 [Example 22-55, 1-[4-(cyanomethyl)-1-(1H-indol-5-ylmethyl)piperidin-4-yl]-3-[(4-fluorophenyl)amino]-1H-pyrazole-4-carboxamide] | 4 | 53 |
| N#CCC1(n2cc(C(N)=O)c(Nc3ccc(F)cc3)n2)CCN(Cc2ccc3cc[nH]c3c2)CC1 [Example 22-56, 1-[4-(cyanomethyl)-1-(1H-indol-6-ylmethyl)piperidin-4-yl]-3-[(4-fluorophenyl)amino]-1H-pyrazole-4-carboxamide] | 2 | 46 |
| N#CCC1(n2cc(C(N)=O)c(Nc3ccc(F)cc3)n2)CCN(Cc2cccc3[nH]ccc23)CC1 [Example 22-57, 1-[4-(cyanomethyl)-1-(1H-indol-4-ylmethyl)piperidin-4-yl]-3-[(4-fluorophenyl)amino]-1H-pyrazole-4-carboxamide] | 14 | 280 |
| N#CCC1(n2cc(C(N)=O)c(Nc3ccc(F)cc3)n2)CCN(Cc2cccc3cc[nH]c23)CC1 [Example 22-58, 1-[4-(cyanomethyl)-1-(1H-indol-7-ylmethyl)piperidin-4-yl]-3-[(4-fluorophenyl)amino]-1H-pyrazole-4-carboxamide] | 4 | 128 |
| N#CCC1(n2cc(C(N)=O)c(Nc3ccnc(F)c3)n2)CCN(Cc2ccccc2Cl)CC1 [Example 22-59, 1-[1-(2-chlorobenzyl)-4-(cyanomethyl)piperidin-4-yl]-3-[(2-fluoropyridin-4-yl)amino]-1H-pyrazole-4-carboxamide] | 0.2 | 7 |
| N#CCC1(n2cc(C(N)=O)c(Nc3ccnc(F)c3)n2)CCN(Cc2ccc(O)cc2)CC1 [Example 22-60, 1-[4-(cyanomethyl)-1-(4-hydroxybenzyl)piperidin-4-yl]-3-[(2-fluoropyridin-4-yl)amino]-1H-pyrazole-4-carboxamide] | 0.1 | 6 |
| N#CCC1(n2cc(C(N)=O)c(Nc3ccnc(F)c3)n2)CCN(Cc2cccc(Cl)c2)CC1 [Example 22-61, 1-[1-(3-chlorobenzyl)-4-(cyanomethyl)piperidin-4-yl]-3-[(2-fluoropyridin-4-yl)amino]-1H-pyrazole-4-carboxamide] | 0.4 | 10 |
| N#CCC1(n2cc(C(N)=O)c(Nc3ccnc(F)c3)n2)CCN(Cc2cccc(C#N)c2)CC1 [Example 22-62, 1-[1-(3-cyanobenzyl)-4-(cyanomethyl)piperidin-4-yl]-3-[(2-fluoropyridin-4-yl)amino]-1H-pyrazole-4-carboxamide] | 0.9 | 33 |
| COc1cccc(CN2CCC(CC#N)(n3cc(C(N)=O)c(Nc4ccnc(F)c4)n3)CC2)c1 [Example 22-63, 1-[4-(cyanomethyl)-1-(3-methoxybenzyl)piperidin-4-yl]-3-[(2-fluoropyridin-4-yl)amino]-1H-pyrazole-4-carboxamide] | 0.5 | 20 |
| COc1ccc(CN2CCC(CC#N)(n3cc(C(N)=O)c(Nc4ccnc(F)c4)n3)CC2)cc1 [Example 22-65, 1-[4-(cyanomethyl)-1-(4-methoxybenzyl)piperidin-4-yl]-3-[(2-fluoropyridin-4-yl)amino]-1H-pyrazole-4-carboxamide] | 1 | 16 |
| N#CCC1(n2cc(C(N)=O)c(Nc3ccnc(F)c3)n2)CCN(Cc2cccc(=O)[nH]2)CC1 [Example 22-67, 1-{4-(cyanomethyl)-1-[(6-oxo-1,6-dihydropyridin-2-yl)methyl]piperidin-4-yl}-3-[(2-fluoropyridin-4-yl)amino]-1H-pyrazole-4-carboxamide] | 1 | 68 |
| N#CCC1(n2cc(C(N)=O)c(Nc3ccnc(F)c3)n2)CCN(Cc2ccc(C#N)cc2)CC1 [Example 22-69, 1-[1-(4-cyanobenzyl)-4-(cyanomethyl)piperidin-4-yl]-3-[(2-fluoropyridin-4-yl)amino]-1H-pyrazole-4-carboxamide] | 0.2 | 9 |
| N#CCC1(n2cc(C(N)=O)c(Nc3ccnc(F)c3)n2)CCN(Cc2cccc(O)c2)CC1 [Example 22-70, 1-[4-(cyanomethyl)-1-(3-hydroxybenzyl)piperidin-4-yl]-3-[(2-fluoropyridin-4-yl)amino]-1H-pyrazole-4-carboxamide] | 0.04 | 1 |
| N#CCC1(n2cc(C(N)=O)c(Nc3ccnc(F)c3)n2)CCN(Cc2ccc(Cl)cc2)CC1 [Example 22-71, 1-[1-(4-chlorobenzyl)-4-(cyanomethyl)piperidin-4-yl]-3-[(2-fluoropyridin-4-yl)amino]-1H-pyrazole-4-carboxamide] | 0.1 | 4 |
| N#CCC1(n2cc(C(N)=O)c(Nc3ccnc(F)c3)n2)CCN(Cc2ccccc2C#N)CC1 [Example 22-72, 1-[1-(2-cyanobenzyl)-4-(cyanomethyl)piperidin-4-yl]-3-[(2-fluoropyridin-4-yl)amino]-1H-pyrazole-4-carboxamide] | 0.3 | 13 |
| CC(c1ccccc1)N1CCC(CC#N)(n2cc(C(N)=O)c(Nc3ccc(F)cc3)n2)CC1 (stereo not drawn) [Example 23, 1-(4-(Cyanomethyl)-1-(1-phenylethyl)piperidin-4-yl)-3-((4-fluorophenyl)amino)-1H-pyrazole-4-carboxamide] | 4 | 105 |
| N#CCC1(n2cc(C(N)=O)c(Nc3ccc(F)cc3)n2)CCN(CCF)CC1 [Example 24-1, 1-(4-(Cyanomethyl)-1-(2-fluoroethyl)piperidin-4-yl)-3-((4-fluorophenyl)amino)-1H-pyrazole-4-carboxamide] | 10 | 59 |
| N#CCC1(n2cc(C(N)=O)c(Nc3ccc(F)cc3)n2)CCN(CC2CC2)CC1 [Example 24-2, 1-[4-(cyanomethyl)-1-(cyclopropylmethyl)piperidin-4-yl]-3-[(4-fluorophenyl)amino]-1H-pyrazole-4-carboxamide] | 41 | 917 |
| N#CCC1(n2cc(C(N)=O)c(Nc3ccc(F)cc3)n2)CCN(c2ccccn2)CC1 [Example 25, 1-(4-(Cyanomethyl)-1-(pyridin-2-yl)piperidin-4-yl)-3-(4-fluorophenylamino)-1H-pyrazole-4-carboxamide] | 0.08 | 2 |
| N#CCC1(n2cc(C(N)=O)c(Nc3ccc(F)cc3)n2)CCN(c2ccncn2)CC1 [Example 26, 1-[4-(Cyanomethyl)-1-pyrimidin-4-ylpiperidin-4-yl]-3-[(4-fluorophenyl)amino]-1H-pyrazole-4-carboxamide] | 0.4 | 5 |
| COC(=O)N1CCC(CC#N)(n2cc(C(N)=O)c(Nc3ccc(S(=O)(=O)C(F)(F)F)cc3)n2)CC1 [Example 27-1, Methyl 4-(4-carbamoyl-3-(4-(trifluoromethylsulfonyl)phenylamino)-1H-pyrazol-1-yl)-4-(cyanomethyl)piperidine-1-carboxylate] | 0.3 | 2 |
| COCCOC(=O)N1CCC(CC#N)(n2cc(C(N)=O)c(Nc3ccc(S(=O)(=O)C(F)(F)F)cc3)n2)CC1 [Example 27-2, 2-methoxyethyl 4-(4-carbamoyl-3-(4-(trifluoromethylsulfonyl)phenylamino)-1H-pyrazol-1-yl)-4-(cyanomethyl)piperidine-1-carboxylate] | 0.3 | 6 |
| COC(=O)N1CCC(CC#N)(n2cc(C(N)=O)c(Nc3ccc(S(C)(=O)=O)cc3)n2)CC1 [Example 27-3, methyl 4-(4-carbamoyl-3-{[4-(methylsulfonyl)phenyl]amino}-1H-pyrazol-1-yl)-4-(cyanomethyl)piperidine-1-carboxylate] | 1 | 16 |
| N#CCC1(n2cc(C(N)=O)c(Nc3ccccc3)n2)CCN(C(=O)OCc2ccccc2)CC1 [Example 27-4, benzyl 4-[4-carbamoyl-3-(phenylamino)-1H-pyrazol-1-yl]-4-(cyanomethyl)piperidine-1-carboxylate] | 3 | 85 |
| COC(=O)N1CCC(CC#N)(n2cc(C(N)=O)c(Nc3ccccc3)n2)CC1 [Example 27-5, methyl 4-[4-carbamoyl-3-(phenylamino)-1H-pyrazol-1-yl]-4-(cyanomethyl)piperidine-1-carboxylate] | 50 | 235 |
| COCC(C)(C)OC(=O)N1CCC(CC#N)(n2cc(C(N)=O)c(Nc3ccc(F)cc3)n2)CC1 [Example 28, 2-Methoxy-1,1-dimethylethyl 4-{4-carbamoyl-3-[(4-fluorophenyl)amino]-1H-pyrazol-1-yl}-4-(cyanomethyl)piperidine-1-carboxylate] | 4 | 74 |
| CC(C)(CO)OC(=O)N1CCC(CC#N)(n2cc(C(N)=O)c(Nc3ccc(F)cc3)n2)CC1 [Example 29, 1-Hydroxy-2-methylpropan-2-yl 4-{4-carbamoyl-3-[(4-fluorophenyl)amino]-1H-pyrazol-1-yl}-4-(cyanomethyl)piperidine-1-carboxylate] | 2 | 96 |
| N#CCC1(n2cc(C(N)=O)c(Nc3ccnc(F)c3)n2)CCN(C(=O)OCC(F)(F)F)CC1 [Example 30-1, 2,2,2-Trifluoroethyl 4-{4-carbamoyl-3-[(2-fluoropyridin-4-yl)amino]-1H-pyrazol-1-yl}-4-(cyanomethyl)piperidine-1-carboxylate] | 0.2 | 8 |
| N#CCC1(n2cc(C(N)=O)c(Nc3ccc(F)cc3)n2)CCN(C(=O)OCC(F)(F)F)CC1 [Example 30-2, 2,2,2-trifluoroethyl 4-(4-carbamoyl-3-(4-fluorophenylamino)-1H-pyrazol-1-yl)-4-(cyanomethyl)piperidine-1-carboxylate] | 0.3 | 15 |
